{"source": "patent US20250177364A1", "about": "“COMBINATION THERAPIES FOR BREAST CANCER” (Genentech, Inc., priority 2022, published 2025)", "key": {"[1]": {"test_system": "ER (ligand-binding domain of wild-type and mutant ER)", "details": "cited from earlier work"}, "HCC1419 cells": {"test_system": "HCC1419 cells", "assay": "Anti-proliferative activity, growth-rate (GR) inhibition method, CyQUANT", "type": "cell-based", "details": "6 days after drug treatment, control GR=1, giredestrant 0.3 μM, trastuzumab and pertuzumab 30 μg/ml each", "method": "(§1) FIG. 3 depicts in vitro anti-proliferative activity of ER inhibition by giredestrant, and/or HER2 inhibition by the combination of trastuzumab and pertuzumab, assessed using the growth rate (GR) method in Example 1. Growth rate (GR) under control conditions is set to 1; lower growth rates equate to a greater anti-proliferative effect. Individual points reflect GR values at 0.3 μM giredestrant, and at […] trastuzumab and pertuzumab. Materials and Methods: ER+/HER2+ cell lines UACC-812, HCC1419 and ZR-75-30 cells were plated in 50 μL culture media in 384-well plates. Cells were incubated in humidified incubator overnight (37 degree, 5% CO2). Test materials were dispensed into 384-well plate on day 1; giredestrant was evaluated as a 9-point dose response (3-fold dose dilutions from a maximum concentration of 300 nM), and traztuzumab and pertuzumab were evaluated as a fixed dose at 30 μg/ml each. Fluorescence-based cell proliferation (CyQUANT®; ThermoFisher Scientific, Cat #C7026) readings were taken at day 1 to establish a baseline, and at 6 days following drug treatment. Analysis of the drug response was performed using the growth-rate (GR) inhibition method to avoid biases between slow and fast-growing lines (Hafner et al., Nat Methods 2016 June; 13 (6): 521-7))."}, "UACC-812 cells": {"test_system": "UACC-812 cells", "assay": "Anti-proliferative activity, growth-rate (GR) inhibition method, CyQUANT", "type": "cell-based", "details": "6 days after drug treatment, control GR=1, giredestrant 0.3 μM, trastuzumab and pertuzumab 30 μg/ml each", "method": "as §1"}, "[2]": {"test_system": "ER-positive, HER2-negative EBC", "details": "neoadjuvant; cited from earlier work"}, "ZR-75-30 cells": {"test_system": "ZR-75-30 cells", "assay": "Anti-proliferative activity, growth-rate (GR) inhibition method, CyQUANT", "type": "cell-based", "details": "6 days after drug treatment, control GR=1, giredestrant 0.3 μM, trastuzumab and pertuzumab 30 μg/ml each", "method": "FIG. 3 depicts in vitro anti-proliferative activity of ER inhibition by giredestrant, and/or HER2 inhibition by the combination of trastuzumab and pertuzumab, assessed using the growth rate (GR) method in Example 1. Growth rate (GR) under control conditions is set to 1; lower growth rates equate to a greater anti-proliferative effect. Individual points reflect GR values at 0.3 μM giredestrant, and at […] trastuzumab and pertuzumab.\nMaterials and Methods: ER+/HER2+ cell lines UACC-812, HCC1419 and ZR-75-30 cells were plated in 50 μL culture media in 384-well plates. Cells were incubated in humidified incubator overnight (37 degree, 5% CO2). Test materials were dispensed into 384-well plate on day 1; giredestrant was evaluated as a 9-point dose response (3-fold dose dilutions from a maximum concentration of 300 nM), and traztuzumab and pertuzumab were evaluated as a fixed dose at 30 μg/ml each. Fluorescence-based cell proliferation (CyQUANT®; ThermoFisher Scientific, Cat #C7026) readings were taken at day 1 to establish a baseline, and at 6 days following drug treatment. Analysis of the drug response was performed using the growth-rate (GR) inhibition method to avoid biases between slow and fast-growing lines (Hafner et al., Nat Methods 2016 June; 13 (6): 521-7)). […]"}, "[3]": {"test_system": "ER-positive BC cell lines", "details": "multiple ER-positive BC cell lines, including cells with ER mutations; cited from earlier work"}, "[4]": {"test_system": "ER-positive, HER2-negative ABC", "details": "30 mg daily; previously treated patients; cited from earlier work"}}}
{"molecule": "C[C@@H]1Cc2c([nH]c3ccccc23)[C@@H](c2c(F)cc(NC3CN(CCCF)C3)cc2F)N1CC(F)(F)CO", "note": "[giredestrant, 3-((1R,3R)-1-(2,6-difluoro-4-((1-(3-fluoropropyl)azetidin-3-yl)amino)phenyl)-3-methyl-1,3,4,9-tetrahydro-2H-pyrido[3,4-b]indol-2-yl)-2,2-difluoropropan-1-ol]", "values": [{"measurement": "Potency compared to fulvestrant, tamoxifen and other oral SERDs", "setting": "[1]; Liang et al.", "result": "higher potency"}, {"measurement": "Potency of competitive binding to the ER", "setting": "[1]; competes with estrogens", "result": "low nanomolar potency"}, {"measurement": "Growth rate (GR) value", "setting": "HCC1419 cells", "result": "< 0.5"}, {"measurement": "Growth rate (GR) value", "setting": "UACC-812 cells", "result": "< 0.5"}, {"measurement": "Ki67 suppression and complete cell cycle arrest versus anastrozole", "setting": "[2]", "result": "superior to anastrozole"}, {"measurement": "Growth rate (GR) value", "setting": "ZR-75-30 cells", "result": "> 0.75"}, {"measurement": "Inhibition of proliferation", "setting": "[3]", "result": "potently inhibits"}, {"measurement": "Clinical activity", "setting": "[4]", "result": "promising signs of clinical activity"}, {"measurement": "Safety", "setting": "[4]", "result": "safe"}]}
